How the values were obtained:
[1] = system: fatty liver induced by dl-ethionine; test: Therapeutic effect on the dl-ethionine-induced fatty liver (Test Example 3); assay type: in vivo, Sprague Dawley rats
Protocol: In order to examine the therapeutic effect of the inventive oral microemulsion composition, a test to measure the activity of restoring fatty liver induced by dl-ethionine was conducted as follows.
Six groups of rats, each consisting of 6 rats were prepared by the procedure of Test Example 1. A 2% (w/v) dl-ethionine saline solution was subcutaneously injected to each rat of five experimental groups (Groups 1 to 5) at a dosage of 200 mg/kg, twice a week to induce fatty liver.
The rats of Group 1 (negative control) were not treated with any therapeutic drug after the ethionine injection. The rats of Group 2 (positive control) were orally administered with BDD suspended in 1% (w/v) CMC once a day, five times a week after the ethionine injection, in an amount corresponding to 25 mg/kg of BDD; the rats of Group 3, with the Carduus marianus extract suspended in 1% (w/v) CMC, in an amount corresponding to 175 mg/kg of the Carduus marianus extract (52.5 mg/kg as silybin); and the rats of Group 4, with a simple mixture of BDD and Carduus marianusextract suspended in 1% (w/v) CMC, in an amount corresponding to 25mg/kg of BDD and 175 mg/kg of the Carduus marianus extract. The rats of Group 5 were orally administered with the formulation of Example 3 once a day, five times a week, in an amount corresponding to 3 mg/kg of BDD and 175 mg/kg of the Carduus marianus extract; and the rats of Group 6 (normal group) received neither ethionine injection nor any therapeutic drug.
One week after the administration, each rat was sacrificed, and the liver was extracted therefrom. The extracted liver was washed with saline, soaked in a 4-fold volume of potassium phosphate buffer (pH 7.5), and homogenized with a teflone-glass homogenizer. The homogenized liver was subjected to centrifugation at 600×g for 10 minutes to obtain a supernatant, which was subjected to centrifugations at 10,000×g for 20minutes, and then at […], to obtain a supernatant.
Then, the total cholesterol and triglyceride levels of each liver sample were measured by employing the supernatant in accordance with a conventional method, and the results are shown in Tables 5 and 6, respectively.

liver damaged by CCl4 = test: Therapeutic effect on the liver damaged by carbon tetrachloride (Test Example 1); assay type: in vivo, Sprague Dawley rats; conditions: serum
Protocol: The therapeutic effect of the inventive oral microemulsion composition on the liver damaged by CCl4 was examined as follows.
Thirty-six 4 to 5-week old male Sprague Dawley rats were divided into six groups each consisting of 6 rats having an average body weight of 202±5g. The rats were acclimated to the cage environment set at 23±2° C. and 55±5% relative humidity. Then 50% (v/v) solution of carbon tetrachloride in corn oil was intraperitoneally administered to each rat of five experimental groups (Groups 1 to 5) at a dose of 0.75 ml/kg, twice a week (monday and friday) to induce hepatotoxicity.
The rats of Group 1 (negative control) were not treated with any therapeutic drug after the CCl4 injection. The rats of Group 2 (positive control) were orally administered with BDD suspended in 1% (w/v) CMC (carboxymethyl cellulose) once a day, six times a week after the CCl4 injection, in an amount corresponding to 25 mg/kg of BDD; the rats of Group 3, with a Carduus marianus extract suspended in 1% (w/v) CMC, in an amount corresponding to 175 mg/kg of the Carduus marianus extract (52.5 mg/kg as silybin); and the rats of Group 4, with a simple mixture of BDD and Carduus marianus extract suspended in 1% (w/v) CMC, in an amount corresponding to 25 mg/kg of BDD and 175 mg/kg of the Carduus marianus extract. The rats of Group 5 were orally administered with the formulation of Example 3 once a day, six times a week, in an amount corresponding to 3 mg/kg of BDD and 175 mg/kg of the Carduus marianusextract; and the rats of Group 6 (normal group) were not subjected to CCl4injection and no therapeutic drugs were administered thereto.
Four weeks after the administration, the rats were sacrificed and serum samples were taken according to a preset schedule. The serum ALT (alanine aminotransferase) and AST (aspartate aminotransferase) levels were measured in accordance with a conventional method, and the results are shown in Tables 1 and 2, respectively.

[2] = dl-ethionine-treated rats, oral once a day five times a week, one week, BDD 25 mg/kg, extract 175 mg/kg, Example 3: 3 mg/kg BDD + 175 mg/kg extract
[3] = versus ethionine control Group 1, one week
[4] = CCl4-treated rats, oral once a day six times a week, four weeks, BDD 25 mg/kg, extract 175 mg/kg, Example 3: 3 mg/kg BDD + 175 mg/kg extract
[5] = versus CCl4 control Group 1, four weeks

COC(=O)c1cc(OC)c2c(c1-c1c(C(=O)OC)cc(OC)c3c1OCO3)OCO2 [BDD, biphenyldimethyldicarboxylate]
Total Cholesterol (average concentration ± standard deviation) [1, 2]: 22.0 ± 1.9 mg/g | Triglyceride (average concentration ± standard deviation) [1, 2]: 10.1 ± 0.5 mg/g | Ratio of cholesterol level to a control [1, 3]: 91.3% | Ratio of triglylceride level to a control [1, 3]: 72.7% | ALT (average concentration ± standard deviation) (liver damaged by CCl4; [4]): 137.7 ± 19.5 SF U/ml | AST (average concentration ± standard deviation) (liver damaged by CCl4; [4]): 163.3 ± 4.5 SF U/ml | Ratio of ALT level to a control (liver damaged by CCl4; [5]): 91.7% | Ratio of AST level to a control (liver damaged by CCl4; [5]): 95.2%
